Five compounds from patent US20070264674A1, “Cytochrome P450 Induction Assay” (priority 2004, published 2007) can be followed below.

Each structure is given as a SMILES string.

The target in data set [1] is T1, hCAR (Homo sapiens, UniProt Q14994).
T1 sequence (Q14994 1-348 isoform Q14994-2): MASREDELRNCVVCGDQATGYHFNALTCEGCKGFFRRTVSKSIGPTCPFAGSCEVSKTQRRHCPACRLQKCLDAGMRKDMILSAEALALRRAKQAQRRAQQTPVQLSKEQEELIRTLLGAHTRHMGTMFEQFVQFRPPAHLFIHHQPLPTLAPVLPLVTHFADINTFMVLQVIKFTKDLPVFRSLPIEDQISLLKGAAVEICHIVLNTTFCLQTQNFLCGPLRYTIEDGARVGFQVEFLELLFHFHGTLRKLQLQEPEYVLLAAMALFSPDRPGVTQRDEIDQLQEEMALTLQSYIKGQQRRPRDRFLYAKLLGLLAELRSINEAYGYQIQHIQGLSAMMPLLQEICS
The experiment in a line: Primary rat hepatocytes cotransfected with clone 102-SEAP and hCAR. The settings on record: 10 μM Rifampicin, 1 μM CITCO, 1 mM Phenobarbital, 48 h. Also noted: expressed in transfected cells; host or cells: primary rat hepatocytes (transient co-transfection, Effectene). The format is cell-based. The procedure:
(§1) After four hours, cell culture medium was changed with 1 mL Williams E medium containing Pen/Strep, glutamine and ITS+Premix and the cells were incubated overnight under normal growth condition.
(§2) This was followed by adding 3.2 μL Enhancer and mixing by vortexing for 1 second. […] The cotransfections were followed by adding 3.2 μL Enhancer and mixing by vortexing for 1 second. The transfections/cotransfections were incubated at room temperature for 5 minutes. Then, the mixtures were centrifuged for a few seconds to remove drops from the top of the tube. Next, to each of the mixtures, five μL of Effectene Transfection Reagent was added and the mixtures mixed by vortexing for 10 seconds. The mixtures were then incubated for ten minutes at room temperature to allow transfection complex formation.
(§3) Meanwhile, the growth medium for each of the wells of the 24-well plate containing the cells was removed from the wells and the cells in the wells washed once with 1 mL of growth medium. Then, 350 μL of fresh growth medium was added to each of the wells and 350 μL of growth medium was added to each of the tubes of transfection complexes, which were then mixed and immediately added drop-wise onto the cells in the well. The plates were gently swirled to ensure uniform distribution of the transfection complexes over the cells. […]

Data set [2] has as its target T1, hCAR. The data set is described as follows: SEAP reporter assay in HepG2 cells co-transfected with human CAR. Format: cell-based. Also noted: A 1047 bp nucleic acid encoding the human CAR (hCAR) obtained from the RT-PCR; expressed in transfected cells; host or cells: HepG2 (transient co-transfection with the reporter plasmid). The conditions noted are these: HepG2 + human CAR (constitutive activation); 48 h; 200 μM Omeprazole, 6 μM Clotrimazole, 125 nM Hyperforin, 12.5 μM Lovastatin, 100 μM N-propyl-p-hydroxy-benzoate. On the procedure: The NR donor plasmid encoding the human CAR was made as follows. The human CAR was made by RT-PCR from a human liver mRNA preparation. […] The RT-PCR conditions were 15 seconds at 94° C., 30 cycles of 94° C. for 30 seconds followed by 68° C. for 3 minutes, then 68° C. for 3 minutes, and storage at 4° C.
Controls omitted the DNA encoding the human CAR. Additional controls consisted of DNA encoding the human PXR of the previous example.
After incubating the cells 48 hours at 37° C., the medium form wells were collected for SEAP assays. The assays for SEAP expression were performed with Tropix Phospha-Light system kit.

The target of data set [3] is T2, hPXR (Homo sapiens, UniProt O75469).
T2 sequence (O75469 1-434): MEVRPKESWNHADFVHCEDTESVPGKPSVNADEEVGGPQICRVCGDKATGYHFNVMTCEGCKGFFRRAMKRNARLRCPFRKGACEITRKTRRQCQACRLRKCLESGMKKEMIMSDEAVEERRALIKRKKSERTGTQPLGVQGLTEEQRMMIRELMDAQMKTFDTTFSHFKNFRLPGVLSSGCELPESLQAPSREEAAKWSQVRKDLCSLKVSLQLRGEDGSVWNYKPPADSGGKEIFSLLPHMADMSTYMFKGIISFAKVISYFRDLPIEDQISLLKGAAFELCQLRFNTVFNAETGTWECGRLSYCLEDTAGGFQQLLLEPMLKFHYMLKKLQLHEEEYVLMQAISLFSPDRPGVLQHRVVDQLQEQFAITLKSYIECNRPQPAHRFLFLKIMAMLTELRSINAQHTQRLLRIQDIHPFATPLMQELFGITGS
The experiment in a line: Primary rat hepatocytes cotransfected with clone 102-SEAP and hPXR. The conditions noted are these: 10 μM Rifampicin, 1 μM CITCO, 1 mM Phenobarbital, 48 h. The procedure: as §1, §2, §3

Data set [4] deals with endogenous rat CAR or PXR. The experiment in a line: Primary rat hepatocytes transfected with clone 102-SEAP and pUC19 (control, no nuclear receptor). The settings on record: clone 102-SEAP + pUC19, 10 μM Rifampicin, 1 μM CITCO, 1 mM Phenobarbital, 48 h. On the procedure: as §1, §2, §3

Regarding `Clc1ccc(-c2nc3sccn3c2C=NOCc2ccc(Cl)c(Cl)c2)cc1` [CITCO, 6-(4-Chlorophenyl)imidazo[2,1-b][1,3]thiazole-5-carbaldehyde O-(3,4-dichlorobenzyl)oxime], in data set [1], the “induction of clone 102-SEAP expression via hCAR” value is “about 4.2 fold”.

Regarding `Clc1ccccc1C(c1ccccc1)(c1ccccc1)n1ccnc1` [Clotrimazole], in data set [2], the “effect on transcription from clone 102-SEAP composite promoter” value is “inhibitory effect” and the “effect on transcription from ΔCYP3A4 promoter” value was “inhibitory effect”.

`CC[C@H](C)C(=O)O[C@H]1C[C@@H](C)C=C2C=C[C@H](C)[C@H](CC[C@@H]3C[C@@H](O)CC(=O)O3)[C@H]21` [Lovastatin]: in data set [2], the “effect on transcription from clone 102-SEAP composite promoter” value is on record as “not affected”.

For `CCCOC(=O)c1ccc(O)cc1` [N-propyl-p-hydroxy-benzoate], in data set [2], the “effect on transcription from clone 102-SEAP composite promoter” value is “not affected” and the “effect on transcription from ΔCYP3A4 promoter” value is on record as “moderate inhibition”.

For the compound `CCC1(c2ccccc2)C(=O)NC(=O)NC1=O` [Phenobarbital], in data set [3], the “induction of clone 102-SEAP expression via hPXR” value was “about 3.4 fold”. The “induction of clone 102-SEAP without co-transfected nuclear receptor” value in data set [4] is “no response”.
